The target of experiment [1] is T1, PptA (AFPptA; AFPptA-GST) (Aspergillus fumigatus, UniProt B0XWE4).
T1 construct: gene AFUB_024520
Kind of experiment: fluorescence polarization, transfer of BODIPY-TMR-labelled phosphopantetheine from CoA to AarA. Format: biochemical. In general terms: Polarisation of emitted light reports the rotation of a fluorescent probe.

The target in a further experiment is T2, HS-PPTase (AASDHPPT) (Homo sapiens, UniProt Q9NRN7).
T2 construct: cDNA cloned into pET43.1, E. coli BL21(DE3), Ni-NTA purified
T2 sequence (Q9NRN7 1-309): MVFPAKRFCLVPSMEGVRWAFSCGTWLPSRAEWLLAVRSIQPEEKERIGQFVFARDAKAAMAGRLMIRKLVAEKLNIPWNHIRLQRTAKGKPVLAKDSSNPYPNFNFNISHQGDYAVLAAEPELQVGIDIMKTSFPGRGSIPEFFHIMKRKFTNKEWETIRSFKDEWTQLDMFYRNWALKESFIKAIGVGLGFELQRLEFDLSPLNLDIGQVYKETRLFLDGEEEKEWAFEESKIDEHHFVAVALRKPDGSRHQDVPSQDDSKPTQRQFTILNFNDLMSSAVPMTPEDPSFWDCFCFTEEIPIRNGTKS
Kind of experiment: fluorescence polarization, transfer of BODIPY-TMR-labelled phosphopantetheine from CoA to human ACP domain. It is filed as biochemical. The settings on record: read-out: no inhibition at concentrations up to 200 μM.

Molecules are shown by their SMILES. Where two headings read alike, the source gives them in different places.

T1 sequence (B0XWE4 entry or part of it): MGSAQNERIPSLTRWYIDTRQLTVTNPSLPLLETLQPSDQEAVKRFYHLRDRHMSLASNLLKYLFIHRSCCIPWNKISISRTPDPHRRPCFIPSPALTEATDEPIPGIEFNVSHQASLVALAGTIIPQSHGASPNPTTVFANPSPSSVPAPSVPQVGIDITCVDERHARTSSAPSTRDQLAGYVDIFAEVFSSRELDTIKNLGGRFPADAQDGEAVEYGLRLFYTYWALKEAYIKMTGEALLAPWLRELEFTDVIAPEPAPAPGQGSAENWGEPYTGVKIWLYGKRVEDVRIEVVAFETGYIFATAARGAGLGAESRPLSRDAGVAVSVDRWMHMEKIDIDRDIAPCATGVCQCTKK

Consider `O=Nc1ccc2oc(=O)ccc2c1` [6-nitroso-1,2-benzopyrone], for which the values for the IC50 (in experiment [1]; at HS-PPTase (AASDHPPT)) were 35.2 µM and greater than 200 µM, respectively.

Compound `N=C1Sc2ccccc2C2=NCCCN12` [PD 404,182] yielded an IC50 in experiment [1] of 3.9 µM.

As to `Clc1ccc(C(c2ccc(Cl)cc2)n2cc[n+](CC(OCc3ccc(Cl)cc3Cl)c3ccc(Cl)cc3Cl)c2)cc1` (stereo not shown) [calmidazolium chloride], the IC50 in experiment [1] (acceptor A. fumigatus AarA 750 ng, BODIPY-TMR-CoA, 62.5 mM bis-Tris pH 6.5, 12.5 mM Mg chloride, room temperature, 100 ng PptA, triplicate, doubling dilutions from 100 µM) worked out at 19.2 µM.

The values are drawn from publication PMC5516258, “A Nonredundant Phosphopantetheinyl Transferase, PptA, Is a Novel Antifungal Target That Directs Secondary Metabolite, Siderophore, and Lysine Biosynthesis in Aspergillus fumigatus and Is Critical for Pathogenicity” (mBio, 2017).
